In US12070464B2, “Methods of treating myeloproliferative disorders” (priority 2019, dated 2024):

Key:
Type in all cases: in vivo, human
[1] = test system: JAK inhibitor treatment naive myelofibrosis patients
Protocol: (§1) A Phase 2 study of Compound 1 in subjects with myelofibrosis (MF) was conducted. Three treatment arms were studied:
Arm 3—combination treatment with Compound 1 and Rux in patients (pts) who have not previously been administered a JAK inhibitor, i.e., JAK inhibitor treatment naive. In this arm, key eligibility criteria of included JAKi naive myelofibrosis (MF) patients (pts) with Dynamic International Prognostic Scoring (DIPSS) score int-1 or higher, ECOG performance status ≤2, platelet counts (PLT) ≥100×109/L, peripheral blood blast count <10%, anemia (hemoglobin <10 g/dL), ≥5 cm palpable spleen, ≥2 symptoms measurable (score ≥3) or a total symptom score (c using the MFSAF v4.0. Primary endpoint: spleen volume response (SVR); key secondary endpoints: change in TSS, safety and PK; additional endpoints: changes in proinflammatory cytokine (Ck) levels, BM morphology and mutant allele burden.
(§2) The starting dose of Compound 1 was 125 mg given orally, once daily for 2 weeks on/1 week off in a 21-day dosing cycle. Two separate time points for data analysis occurred for at least Arms 1 and 2 and are discussed below: one at approximately 12 weeks of treatment (first assessment of spleen volume by MRI or CT and every 12 weeks thereafter) and another at approximately 24 weeks of treatment (first assessment of bone marrow biopsy and every 24 weeks thereafter). Patients were added to the study following the first time point.
Demographics and results are as follows: Baseline median age: 71 years (52-76), gender: 8 male (72.7%), ECOG ≤1: 10 (90.9%) patients, primary MF: 8 (72.7%) patients, DIPSS score: int-1/int-2/high: 2/7/2 patients, median platelet: 368×109/L (112-951), 9 (81.8%) patients with hemoglobin <10 g/dL, median spleen volume: 1379 cc (580-2807), median TSS: 11.8 (4.1-17), driver mutations: 11 (100%) with ≥1 JAK2/MPL/CALR mutations, HMR (high molecular risk) mutations: 6 […] patients, and ≥3 mutations: 4 (36%) patients. […] See FIG. 9, where * is data post cut off-date.

[2] = test system: patients with refractory or intolerant advanced myelofibrosis; assay: Phase 2 study, Arms 1 and 2 together (monotherapy or add-on to ruxolitinib)
Protocol: as §1
(§3) Arm 1=monotherapy with Compound 1 in patients (pts) who are no longer on Rux and are with refractory, intolerant, or ineligible. In this arm patients were further stratified based on transfusion dependence status [transfusion dependent (TD), defined as an average of >2 units per month over 12 wks, or non-TD cohorts]. Primary endpoint: spleen volume response (SVR) for non-TD cohorts or TD to transfusion independence (TI, no transfusion for consecutive 12 wks) conversion for TD cohorts; secondary endpoints: change in total symptom score (TSS) per MFSAF v4.0, patient global impression of change (PGIC), safety and PK; additional endpoints: changes in proinflammatory Ck levels, BM morphology and mutant allele burden.
as §3, with “2=combination add-on treatment of” for “1=monotherapy with”, “already being administered Rux.” for “no longer on Rux and are with refractory, intolerant, or ineligible.”, “cohorts]. The starting dose of Compound 1 was 125 mg daily on days 1-14 of a 21-day cycle in both arms.” for “cohorts].”
as §2
Demographics and results are as follows: At baseline, median age: 69 years (41-88), gender: 28 (58%) male, ECOG <1: 45 (94%) patients, primary MF: 33 (69%) patients, DIPSS score high: 10 (21%) patients, median platelet: 199 x 1091 (77-895), 34 (71%) patients with Hgb <10 g/dL, median spleen volume: 2183 cc (123-3909), median TSS: 17.6 (1.4-56), 46 (96%) patients had ≥1 JAK2/MPL/CALR mutations, and 34 (71%) patients had HMR (high molecular risk) mutations. 33 (69%) patients on treatment for ≥12 wks, 4 on treatment for >18 months.

[3] = test system: patients with refractory or intolerant myelofibrosis already being administered Rux; assay: Phase 2 study, Arm 2 (Compound 1 add-on to ruxolitinib)
Protocol: A Phase 2 study of Compound 1 in subjects with myelofibrosis (MF) was conducted. Three treatment arms were studied: Arm 2=combination add-on treatment of Compound 1 in patients (pts) who are already being administered Rux. In this arm patients were further stratified based on transfusion dependence status [transfusion dependent (TD), defined as an average of >2 units per month over 12 wks, or non-TD cohorts]. The starting dose of Compound 1 was 125 mg daily on days 1-14 of a 21-day cycle in both arms. Primary endpoint: spleen volume response (SVR) for non-TD cohorts or TD to transfusion independence (TI, no transfusion for consecutive 12 wks) conversion for TD cohorts; secondary endpoints: change in total symptom score (TSS) per […]4.0, patient global impression of change (PGIC), safety and PK; additional endpoints: changes in proinflammatory Ck levels, BM morphology and mutant allele burden. The starting dose of Compound 1 was 125 mg given orally, once daily for 2 weeks on/1 week off in a 21-day dosing cycle. Two separate time points for data analysis occurred for at least Arms 1 and 2 and are discussed below: one at approximately 12 weeks of treatment (first assessment of spleen volume by MRI or CT and every 12 weeks thereafter) and another at approximately 24 weeks of treatment (first assessment of bone marrow biopsy and every 24 weeks thereafter). Patients were added to the study following the first time point. Patients were added to the study following the first data cut and treatment was continued for approximately 25.9 weeks (median, range: 0.4, 116.6).

[4] = expanded population n=15, at least 12 weeks, FIG. 16
[5] = Time Point 2, Arms 1 and 2, FIG. 14
[6] = Time Point 1, Compound 1 with ruxolitinib

Cc1noc2c1-c1ccccc1C(c1ccc(Cl)cc1)=N[C@H]2CC(N)=O [Compound 1, 2-((4S)-6-(4-chlorophenyl)-1-methyl-4H-benzo[c]isoxazolo[4,5-e]azepin-4-yl)acetamide]
patients achieving ≥50% improvement in TSS ([1]; 4 patients on treatment for ≥12 weeks, with ruxolitinib): 100% | patients achieving ≥35% spleen volume reduction ([1]; 4 patients on treatment for ≥12 weeks, with ruxolitinib, FIG. 9): 100% | patients who had a TSS of ≥10 ([1]; expanded population n=15, FIG. 17): about 71% | patients with overall improvement in PGIC ([1]; expanded population n=15, FIG. 18): About 80% | SVR, average [1, 4]: about −49.7% | patients achieving ≥35% SVR [1, 4]: About 80% | DLTs and grade ≥3 thrombocytopenia ([1]; human, in vivo): no DLTs or grade ≥3 thrombocytopenia | most common TEAE observed in ≥2 patients ([1]; human, in vivo): anemia (1 grade 3), fatigue (all ≤grade 2), and non-cumulative reversible thrombocytopenia (all ≤grade 2) | most common (≥20%) treatment-emergent adverse events of any Gr ([2]; Time Point 1): diarrhea, nausea, cough and upper respiratory tract infection | ≥3 Gr TEAE anemia ([2]; Time Point 1): 8.3% | patients with improvement in BM fibrosis and/or reticulin by ≥1 Gr ([2]; Time Point 1, 7 of 12 evaluable patients, as early as 6-months): 58% | patients with ≥50% TSS improvement ([2]; Time Point 1, 11 patients): 39% | patients reporting much or very much improved PGIC scores ([2]; Time Point 1, 21 patients): 64% | patients with TSS improvement ([2]; Time Point 1, 26 of 28 patients, FIG. 8 panel B): 93% | patients with PGIC improvement score ([2]; Time Point 1, 28 of 33 patients): 85% | patients with spleen volume reduction ([2]; Time Point 1, 29 of 31 patients, FIG. 8 panel A): 94% | ≥3 Gr TEAE thrombocytopenia ([2]; Time Point 1, asymptomatic, non-cumulative and generally reversible): 8.3% | subjects with bone marrow fibrosis improvement [2, 5]: about 38% | subjects with bone marrow fibrosis improvement as early as 6-months [2, 5]: about 32% | tolerability ([2]; alone or add-on to ruxolitinib): generally well-tolerated | TD patients converted to TI [3, 6]: 4 patients | duration of TI in 2 of the converted patients [3, 6]: > 36 wks | patients with increase in hemoglobin by 1.5 mg/dL post-baseline ([3]; Time Point 1, Compound 1 with ruxolitinib, 4 of 25): 16% | average spleen volume reduction ([3]; Time Point 2, 24 weeks, non-transfusion dependent at start, FIG. 12A): about −10.9% | average spleen volume reduction ([3]; Time Point 2, 24 weeks, transfusion dependent at start): about −24.9% | patients converted from transfusion dependent to transfusion independent ([3]; Time Point 2, 24 weeks, transfusion dependent at start, FIG. 10A): about 35% | average time of conversion from TD to TI ([3]; Time Point 2, Arm 2): about 14 weeks | average transfusion free time post-conversion ([3]; Time Point 2, Arm 2): about 14 weeks | maximum transfusion free time post-conversion ([3]; Time Point 2, Arm 2): 85 weeks | patients with greater than or equal to a 50% reduction in transfusion intensity ([3]; Time Point 2, Arm 2): About 41% | patients with improvement in bone marrow fibrosis ([3]; Time Point 2, non-transfusion dependent at start): about 25% | patients with improvement in disease symptoms per TSS ([3]; Time Point 2, non-transfusion dependent at start, FIG. 12B): About 38% | patients with improved PGIC ([3]; Time Point 2, non-transfusion dependent at start, FIG. 12C): about 69% | patients with improvement in disease symptoms per TSS ([3]; Time Point 2, transfusion dependent at start, FIG. 10B): About 76.5% | patients with improved PGIC ([3]; Time Point 2, transfusion dependent at start, FIG. 10C): about 75%
